These results are taken from the supplement of paper PMC4862054.

Molecules are shown by their SMILES. Where “and” joins values, the source holds several entries; their conditions need not be identical. Equal values may be shown once.

Holding throughout (settings): incubation time: 72 h
Test [1] has as its system CAL-148. The test can be described thus: normalised viability (% of control), CellTiter-Blue; higher = more viable cells (about 100 = DMSO control). As to the method: (§1)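 DSRT, CellTiter-Blue viability, 72 h incubation. Signal is normalised to DMSO and benzethonium chloride controls. Value is the normalised response at dose 9.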
(In general: Alamar Blue is a resazurin reagent that responds to reducing activity.)

Test [2] deals with CAL-51. The description is as above. As to the method: as §1
Test [3] has as its system HDQ-P1. Described as above. As to the method:
as §1

The subject of test [4] is MDA-MB-453. Described as above. As to the method: as §1
The test system of test [5] is DU-4475. The test is described as above. As to the method:
as §1

Test [6] relates to CAL-85-1. The description is as above. As to the method:
as §1

For test [7], the system named is BT-549. The test can be described thus: normalised viability (% of control), CellTiter-Blue; higher = more viable cells (100 = DMSO, 0 = benzethonium chloride kill control). As to the method: (§2)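 DSRT, CellTiter-Blue viability, 72 h incubation. Signal is normalised to DMSO and benzethonium chloride controls. Value is the normalised response at dose 1.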
The test system of test [8] is MDA-MB-436. The description is as above. As to the method: as §2
The subject of test [9] is CAL-148. Described as above. As to the method: as §2
In test [10] the test system is HCC1143. The description is as above. As to the method:
as §2

For test [11], the system named is CAL-51. The description is as above. As to the method: as §2
The test system of test [12] is MDA-MB-468. The test is described as above. As to the method: as §2
In test [13] the test system is BT-474. The test is described as above. As to the method: as §2
Test [14] relates to HDQ-P1. The test is described as above. As to the method:
as §2

In test [15] the test system is MDA-MB-231. Described as above. As to the method:
as §2

The test system of test [16] is HCC1937. Described as above. As to the method: as §2
For test [17], the system named is SK-BR-3. The description is as above. As to the method:
as §2

The test system of test [18] is CAL-120. The description is as above. As to the method:
as §2

For test [19], the system named is MFM-223. The test is described as above. As to the method:
as §2

In test [20] the test system is Hs578T. The description is as above. As to the method:
as §2

Test [21] concerns MDA-MB-453. The description is as above. As to the method: as §2
Test [22] deals with HCC1599. The description is as above. As to the method:
as §2

Test [23] concerns DU-4475. The description is as above. As to the method: as §2
For test [24], the system named is CAL-85-1. Described as above. As to the method: as §2
The test system of test [25] is BT-549. Briefly: normalised response (% of control), CellTiter-Glo; higher = more viable cells (100 = DMSO, 0 = benzethonium chloride kill control). In a few lines:
(§3)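 Every value is a normalised signal taken at one concentration of a dilution series. Compound was placed in 384-well plates at 5 concentrations in 10-fold steps over a compound-specific 10,000-fold range, and 20 µl of breast cancer cell suspension was seeded onto it. After 72 h, CellTox Green fluorescence (485/520 nm) was measured first and CellTiter-Glo luminescence second, following 10 min at room temperature. Each plate was scaled to 0.1 % DMSO (100) and a positive kill control (0).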
(In general: ATP-based viability assays read luminescence as a measure of living cells.)

Test [26] relates to MDA-MB-436. Described as above. In a few lines:
as §3

Test [27] has as its system CAL-148. Described as above. In a few lines:
as §3

The subject of test [28] is HCC1143. Described as above. In a few lines: as §3
The test system of test [29] is CAL-51. The description is as above. In a few lines: as §3
The test system of test [30] is MDA-MB-468. The test is described as above. In a few lines:
as §3

Test [31] relates to BT-474. Described as above. In a few lines: as §3
The test system of test [32] is HDQ-P1. The description is as above. In a few lines:
as §3

The subject of test [33] is MDA-MB-231. Described as above. In a few lines: as §3
In test [34] the test system is HCC1937. The test is described as above. In a few lines:
as §3

The subject of test [35] is SK-BR-3. Described as above. In a few lines:
as §3

The subject of test [36] is CAL-120. Described as above. In a few lines: as §3
Test [37] concerns MFM-223. The description is as above. In a few lines: as §3
Test [38] has as its system Hs578T. The description is as above. In a few lines: as §3
A further test deals with MCF-10A. The test is described as above. In a few lines:
as §3

The subject of test [39] is MDA-MB-453. The description is as above. In a few lines:
as §3

Test [40] deals with HCC1599. The description is as above. In a few lines: as §3
For test [41], the system named is DU-4475. Described as above. In a few lines: as §3
For test [42], the system named is CAL-85-1. Described as above. In a few lines:
as §3

As to `S=P(N1CC1)(N1CC1)N1CC1` [Thio-TEPA] (100000 nM), the normalised viability was found to be 111% with CAL-148 [1]; 99.7% in the test with CAL-51 [2]; 91.3% in the test on HDQ-P1 [3]; 104% in the test with MDA-MB-453 [4]; 102% in the test on DU-4475 [5]; 101% with CAL-85-1 [6].

With `Nc1cc(C(F)(F)F)c(-c2cc(N3CCOCC3)nc(N3CCOCC3)n2)cn1` [BKM-120] (1 nM), the normalised viability in the test on BT-549 [7] stood at 97.8%; in the test on MDA-MB-436 [8] it was 104%; in the test with CAL-148 [9] it was 105%; with HCC1143 [10] it was 88.4%; with CAL-51 [11], 98%; in the test on MDA-MB-468 [12], 96.6%. Further, the normalised viability in the test on BT-474 [13] is 116%; in the test on HDQ-P1 [14] it was 99%; in the test on MDA-MB-231 [15], 110%; in the test with HCC1937 [16], 95.9%; in the test with SK-BR-3 [17], 99.7%; with CAL-120 [18], 85.6%. Moreover, the normalised viability turned out to be 93% in the test with MFM-223 [19]; 121% in the test with Hs578T [20]; 103% in the test with MDA-MB-453 [21]; 82.8% in the test with HCC1599 [22]; 114% in the test on DU-4475 [23]; 89.5% in the test with CAL-85-1 [24].

On to `COc1cc2/c(=N/c3ccc(Br)cc3F)nc[nH]c2cc1OCC1CCN(C)CC1` [Vandetanib] (10000 nM), for which the normalised viability in the test with CAL-148 [1] was 59.6%; with CAL-51 [2], 15.3%; in the test on HDQ-P1 [3], 8.94%; in the test with MDA-MB-453 [4], 17.4%; in the test on DU-4475 [5], 111%; with CAL-85-1 [6] it was 17.3%.

On to `CCc1c2c(nc3ccc(OC(=O)N4CCC(N5CCCCC5)CC4)cc13)-c1cc3c(c(=O)n1C2)COC(=O)[C@]3(O)CC` [Irinotecan] (1 nM), for which the normalised response with BT-549 [25] stood at 109%; in the test with MDA-MB-436 [26], 97.9%; in the test on CAL-148 [27], 98.3%; with HCC1143 [28], 93.9%; in the test on CAL-51 [29] it was 81.6%; with MDA-MB-468 [30], 107%. The normalised response came to 98.5% with BT-474 [31]; 97.3% in the test on HDQ-P1 [32]; 90.3% in the test with MDA-MB-231 [33]; 97.2% in the test with HCC1937 [34]; 110% with SK-BR-3 [35]; 94.2% in the test on CAL-120 [36]. Besides, the normalised response with MFM-223 [37] worked out at 94%; in the test with Hs578T [38] it was 95.9%; in the test with MCF-10A, 96.5%; with MDA-MB-453 [39] it was 114%; with HCC1599 [40], 105%; with DU-4475 [41] it was 104%. In addition, the normalised response in the test with CAL-85-1 [42] is 116%. For the same molecule, the normalised viability with BT-549 [7] is 95.7% and 90.7%; in the test with MDA-MB-436 [8] it was 97.6% and 117%; in the test with CAL-148 [9] it was 91.5% and 110%; in the test with HCC1143 [10] it was 87.2% and 101%; in the test with CAL-51 [11] it was 106% and 112%; with MDA-MB-468 [12], 96.8% and 102%. For the same molecule, the normalised viability in the test on BT-474 [13] is 103% and 98%; in the test with HDQ-P1 [14], 89% and 101%; in the test on MDA-MB-231 [15] it was 82.3% and 98.2%; with SK-BR-3 [17] it was 84.7% and 99.9%; with MFM-223 [19], 93.6% and 104%; in the test on DU-4475 [23], 98.7% and 106%. Further, in the test with CAL-85-1 [24], the normalised viability is 83% and 98.7%.

Consider `Nc1cc(C(F)(F)F)c(-c2cc(N3CCOCC3)nc(N3CCOCC3)n2)cn1` [BKM-120] (10000 nM), for which the normalised viability was found to be 6.46% in the test with CAL-148 [1]; 4.15% in the test on CAL-51 [2]; 12.4% in the test on HDQ-P1 [3]; 6.1% in the test with MDA-MB-453 [4]; 12.7% with DU-4475 [5]; 20.1% with CAL-85-1 [6].

On to `CO[C@H]1C[C@@H]2CC[C@@H](C)[C@@](O)(O2)C(=O)C(=O)N2CCCC[C@H]2C(=O)O[C@H]([C@H](C)C[C@@H]2CC[C@@H](OP(C)(C)=O)[C@H](OC)C2)CC(=O)[C@H](C)/C=C(\C)[C@@H](O)[C@@H](OC)C(=O)[C@H](C)C[C@H](C)/C=C/C=C/C=C/1C` [Ridaforolimus] (1000 nM), for which the normalised viability with CAL-148 [1] was 35.4%; with CAL-51 [2], 31.3%; in the test on HDQ-P1 [3] it was 81.7%; with MDA-MB-453 [4], 21.4%; with DU-4475 [5] it was 6.1%; in the test with CAL-85-1 [6], 50.6%.
